Reference: PubChem BioAssay (NCI)
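48-hour exposure; five concentrations; linearly interpolated endpoints. Definition used: TGI = concentration required for complete inhibition of growth.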

Tests used:
Assay in all cases: inhibition of tumour cell growth, NCI panel, 48 h
[1] = system: U251 CNS
[2] = system: HCT-15 colon
[3] = system: COLO 205 colon
[4] = system: OVCAR-4 ovarian
[5] = system: SNB-75 CNS
[6] = system: RPMI-8226 leukemia
[7] = system: NCI-H522 lung
[8] = system: SK-OV-3 ovarian
[9] = system: MCF7 breast
[10] = system: T-47D breast

| SMILES | TGI [1] [µM] | TGI [2] [µM] | TGI [3] [µM] | TGI [4] [µM] | TGI [5] [µM] | TGI [6] [µM] | TGI [7] [µM] | TGI [8] [µM] | TGI [9] [µM] | TGI [10] [µM] |
| --- | --- | --- | --- | --- | --- | --- | --- | --- | --- | --- |
| COc1cc([C@@H]2OCC3C(c4ccc5c(c4)OCO5)OCC32)cc(OC)c1OC (stereo not given in full) | > 100 | > 100 | > 100 | > 100 | > 100 | > 100 | > 100 | > 100 |  |  |
| O=C(Nc1ccc(C2=NCCN2)cc1)c1cncc(C(=O)Nc2ccc(C3=NCCN3)cc2)c1 | > 100 | > 100 | > 100 | > 100 | > 31.6 | > 100 | > 100 | > 100 | > 100 |  |
| CCC[C@@H](O)C[C@@H]1CCC[C@H](C[C@@H](O)CC)N1C | > 100 | > 100 | > 100 | > 100 |  | > 100 | 30.7 | > 100 | > 100 | > 100 |
| C(/c1ccco1)=c1/nc(-c2ccccc2)n2c1nc1ccccc12 | > 100 | > 100 | > 100 | > 100 |  | 44.4 |  | > 100 | > 100 | > 100 |
| C[C@]12CC[C@H](O)CC1=CC[C@@H]1C2CC[C@]2(C)C(=O)N(N)C(=O)CC12 (stereo not given in full) | > 100 | > 100 | > 100 | > 100 | > 100 | > 100 | > 100 | > 100 |  |  |
| O=c1[nH]cc(N=Cc2cc(Cl)cc(Cl)c2O)c(=O)[nH]1 | > 100 | > 100 | 57.7 | 57.2 |  | 70.6 | 65.3 | 53.9 | > 100 | 66.2 |
| C=C(Br)C(C)(Cl)CCC(Br)C(C)(C)Cl (stereo not given) | > 100 | > 100 | 64.6 | > 100 |  |  | > 100 | > 100 | > 100 | > 100 |
| CCCN=C1CCN(Cc2ccccc2)c2ccccc2N1 | 43.6 | 51.7 | 22.9 | > 100 | 27.5 | 28.9 | 27.9 | > 100 |  |  |
| Cc1cn(C2CC(N(O)C(N)=O)C(CO)O2)c(=O)[nH]c1=O (stereo not given) | > 100 | > 100 | > 100 | > 100 |  | > 100 | > 100 | > 100 | > 100 | > 100 |
| COC(=O)[C@H](Cc1c[nH]c2ccccc12)NP(=O)(O)OCC1C=CC(n2cc(C)c(=O)[nH]c2=O)O1 (stereo not given in full) | > 100 | > 100 | > 100 | > 100 | > 100 | > 100 |  |  |  | > 100 |
| CC1=CC2C(O1)C1C(=O)C=CC(=O)C1=CC2[N+](=O)[O-] (stereo not given) | 36.3 | 39.6 | 21.2 | 31.6 | > 68.1 | > 100 |  | > 100 | 14.3 | > 29.2 |
| Cc1cccc(/C=N/NC(=S)Nc2ccccc2)n1 | > 54.9 | > 38.4 |  | > 90.4 | 32.3 | 75.6 |  | > 68.7 | > 25.7 | > 29.2 |
